Laboratory results as given in PubChem BioAssay AID248 (DTP/NCI, 2004).
Values joined by “and” are separate entries in the source; they are usually repeats but may differ in a detail not shown here. Equal values may be shown once. Inconclusive results and toxic doses are left out. Cut-off read from the data, not from the text of the source: active = T/C of 150% or more; inactive = T/C below 125%.

System: L1210 leukemia ip in BDF1 mice, survival T/C
Assay: NCI In Vivo Anticancer Drug Screen. Data for tumor model L1210 Leukemia (intraperitoneal) in B6D2F1 (BDF1) mice
Conditions: endpoint: mean survival time, higher = longer survival
Summary of the method: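 Transplantable tumor model; survival measured in treated vs vehicle control mice. Value = treated/control.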

[1] = dose: 50.0 mg/kg/injection, schedule: Q01DX009 (ip), vehicle: saline
[2] = dose: 50.0 mg/kg/injection, schedule: Q04DX003 (ip), vehicle: saline
[3] = dose: 100.0 mg/kg/injection, schedule: Q01DX009 (ip), vehicle: saline
[4] = dose: 100.0 mg/kg/injection, schedule: Q04DX003 (ip), vehicle: saline
[5] = dose: 100.0 mg/kg/injection, schedule: Q04DX002 (ip), vehicle: other
[6] = dose: 200.0 mg/kg/injection, schedule: Q04DX002 (ip), vehicle: other
[7] = dose: 100.0 mg/kg/injection, schedule: Q01DX009 (ip), vehicle: Klucel (hydroxypropylcellulose) (HPC)
[8] = dose: 100.0 mg/kg/injection, schedule: Q04DX003 (ip), vehicle: Klucel (hydroxypropylcellulose) (HPC)
[9] = dose: 200.0 mg/kg/injection, schedule: Q04DX003 (ip), vehicle: Klucel (hydroxypropylcellulose) (HPC)
[10] = dose: 25.0 mg/kg/injection, schedule: Q01DX009 (ip), vehicle: saline with Tween-80
[11] = dose: 50.0 mg/kg/injection, schedule: Q01DX009 (ip), vehicle: saline with Tween-80
[12] = dose: 100.0 mg/kg/injection, schedule: Q01DX009 (ip), vehicle: saline with Tween-80
[13] = dose: 100.0 mg/kg/injection, schedule: Q04DX003 (ip), vehicle: saline with Tween-80
[14] = dose: 200.0 mg/kg/injection, schedule: Q04DX003 (ip), vehicle: saline with Tween-80
[15] = dose: 100.0 mg/kg/injection, schedule: Q01DX001 (ip), vehicle: saline
[16] = dose: 200.0 mg/kg/injection, schedule: Q01DX001 (ip), vehicle: saline
[17] = dose: 400.0 mg/kg/injection, schedule: Q01DX001 (ip), vehicle: saline
[18] = dose: 100.0 mg/kg/injection, schedule: Q01DX001 (ip), vehicle: carboxymethylcellulose (CMC)
[19] = dose: 200.0 mg/kg/injection, schedule: Q01DX001 (ip), vehicle: carboxymethylcellulose (CMC)
[20] = dose: 400.0 mg/kg/injection, schedule: Q01DX001 (ip), vehicle: carboxymethylcellulose (CMC)
[21] = dose: 200.0 mg/kg/injection, schedule: Q01DX009 (ip), vehicle: saline with Tween-80
[22] = dose: 400.0 mg/kg/injection, schedule: Q01DX009 (ip), vehicle: saline with Tween-80
[23] = dose: 400.0 mg/kg/injection, schedule: Q04DX003 (ip), vehicle: saline with Tween-80

Measured: T/C

C1CCN(CCC2CCNCC2)C1
inactive: dose: 25.0 mg/kg/injection, schedule: Q01DX009 (ip), vehicle: saline 106 % of control | dose: 25.0 mg/kg/injection, schedule: Q04DX003 (ip), vehicle: saline 97 % of control | [1] 95 % of control | [2] 97 % of control | [3] 106 % of control | [4] 96 % of control and 100 % of control

Cn1c2c(c(=O)n(C)c1=O)CCC(=O)N2
inactive: dose: 100.0 mg/kg/injection, schedule: Q04DX002 (ip), vehicle: Klucel (hydroxypropylcellulose) (HPC) 106 % of control | dose: 200.0 mg/kg/injection, schedule: Q04DX002 (ip), vehicle: Klucel (hydroxypropylcellulose) (HPC) 98 % of control | dose: 400.0 mg/kg/injection, schedule: Q04DX002 (ip), vehicle: Klucel (hydroxypropylcellulose) (HPC) 92 % of control

CCOC(=O)c1[nH]c(=S)n(-c2ccccc2)c1C(=O)OCC
inactive: dose: 100.0 mg/kg/injection, schedule: Q01DX001 (ip), vehicle: other 97 % of control | dose: 100.0 mg/kg/injection, schedule: Q01DX009 (ip), vehicle: other 94 % of control and 95 % of control | [5] 93 % of control and 87 % of control | dose: 200.0 mg/kg/injection, schedule: Q01DX001 (ip), vehicle: other 108 % of control | dose: 200.0 mg/kg/injection, schedule: Q01DX009 (ip), vehicle: other 94 % of control and 115 % of control | [6] 96 % of control and 97 % of control | dose: 400.0 mg/kg/injection, schedule: Q01DX001 (ip), vehicle: other 103 % of control | dose: 400.0 mg/kg/injection, schedule: Q01DX009 (ip), vehicle: other 112 % of control and 90 % of control | dose: 400.0 mg/kg/injection, schedule: Q04DX002 (ip), vehicle: other 93 % of control and 114 % of control

CSc1nc2ccccc2s1
inactive: [7] 97 % of control | [8] 105 % of control | dose: 200.0 mg/kg/injection, schedule: Q01DX009 (ip), vehicle: Klucel (hydroxypropylcellulose) (HPC) 100 % of control | [9] 104 % of control | dose: 400.0 mg/kg/injection, schedule: Q04DX003 (ip), vehicle: Klucel (hydroxypropylcellulose) (HPC) 95 % of control

CC(C1CCC/C(=N\NC(N)=O)C1)[N+](=O)[O-] (configuration not stated)
inactive: [10] 95 % of control | [11] 104 % of control | [12] 89 % of control | [13] 90 % of control | [14] 98 % of control

CCOC(=O)C(C)(C)O
inactive: [15] 91 % of control | [16] 100 % of control | [17] 102 % of control

Cc1nc(N)[nH]c(=O)c1CCCNCc1ccccc1
inactive: dose: 100.0 mg/kg/injection, schedule: Q01DX001 (ip), vehicle: Klucel (hydroxypropylcellulose) (HPC) 96 % of control | dose: 200.0 mg/kg/injection, schedule: Q01DX001 (ip), vehicle: Klucel (hydroxypropylcellulose) (HPC) 94 % of control | dose: 400.0 mg/kg/injection, schedule: Q01DX001 (ip), vehicle: Klucel (hydroxypropylcellulose) (HPC) 94 % of control

O=C(Nc1ccc(S(=O)(=O)F)c(Cl)c1)Oc1ccccc1
inactive: [15] 96 % of control | [16] 96 % of control | [17] 96 % of control

NCC(O)C(F)(F)F (configuration not stated)
inactive: [18] 109 % of control | [19] 97 % of control | [20] 118 % of control

CC(=O)c1ccc(N2CCCCC2)cc1
inactive: dose: 50.0 mg/kg/injection, schedule: Q01DX001 (ip), vehicle: saline 96 % of control | [15] 94 % of control | [16] 100 % of control | [17] 94 % of control

CN(C)c1ccc(C2NC(c3ccccc3)c3c(ccc4ccccc34)O2)cc1 (configuration not stated)
inactive: [15] 92 % of control | [4] 90 % of control | [16] 89 % of control | [17] 89 % of control | dose: 400.0 mg/kg/injection, schedule: Q04DX003 (ip), vehicle: saline 90 % of control

CCN(CC)c1ccc(NC(=O)Nc2ccccc2OC)cc1
inactive: [11] 103 % of control | [12] 93 % of control and 101 % of control | [13] 103 % of control | [21] 101 % of control | [14] 97 % of control | [22] 95 % of control | [23] 96 % of control

c1ccc(OP2OCCO2)cc1
inactive: [1] 92 % of control | [2] 105 % of control | [3] 102 % of control | [4] 102 % of control | dose: 200.0 mg/kg/injection, schedule: Q01DX009 (ip), vehicle: saline 92 % of control | dose: 200.0 mg/kg/injection, schedule: Q04DX003 (ip), vehicle: saline 103 % of control

CC(=O)C1CC[C@@]2(C)C(CC[C@H]3[C@@H]4CCC[C@H]([C@H](C)O)[C@@]4(C)CC[C@@H]32)C1 (some centres not stated)
inactive: dose: 100.0 mg/kg/injection, schedule: Q04DX003 (ip), vehicle: steriod suspending solution 106 % of control | dose: 200.0 mg/kg/injection, schedule: Q04DX003 (ip), vehicle: steriod suspending solution 95 % of control | dose: 400.0 mg/kg/injection, schedule: Q04DX003 (ip), vehicle: steriod suspending solution 119 % of control

COC(=O)c1cccc(OC)c1I
inactive: dose: 50.0 mg/kg/injection, schedule: Q04DX003 (ip), vehicle: Klucel (hydroxypropylcellulose) (HPC) 98 % of control | [8] 106 % of control | [9] 103 % of control

Cc1ccc2[nH]c(=S)n(-c3ccc(Cl)cc3)c(=O)c2c1
inactive: dose: 100.0 mg/kg/injection, schedule: Q04DX003 (ip), vehicle: carboxymethylcellulose (CMC) 97 % of control | dose: 200.0 mg/kg/injection, schedule: Q04DX003 (ip), vehicle: carboxymethylcellulose (CMC) 88 % of control | dose: 400.0 mg/kg/injection, schedule: Q04DX003 (ip), vehicle: carboxymethylcellulose (CMC) 93 % of control

O=C1OC(=O)C2C3C=CC(C3)C12 (configuration not stated)
inactive: dose: 12.5 mg/kg/injection, schedule: Q01DX009 (ip), vehicle: saline with Tween-80 97 % of control | dose: 25.0 mg/kg/injection, schedule: Q01DX009 (ip), vehicle: Klucel (hydroxypropylcellulose) (HPC) 100 % of control | [10] 100 % of control | dose: 50.0 mg/kg/injection, schedule: Q01DX001 (ip), vehicle: carboxymethylcellulose (CMC) 104 % of control | dose: 50.0 mg/kg/injection, schedule: Q01DX009 (ip), vehicle: Klucel (hydroxypropylcellulose) (HPC) 96 % of control | [11] 96 % of control | [18] 106 % of control and 96 % of control | [7] 105 % of control and 87 % of control | [12] 90 % of control | [8] 102 % of control | [13] 98 % of control | [19] 104 % of control and 91 % of control | [21] 92 % of control | [9] 89 % of control | [14] 98 % of control | [20] 95 % of control and 96 % of control | [22] 88 % of control | [23] 97 % of control

Cc1c2ccccc2c(C)c2c1c(F)cc1ccccc12
inactive: dose: 37.5 mg/kg/injection, schedule: Q01DX001 (ip), vehicle: Klucel (hydroxypropylcellulose) (HPC) 120 % of control

C/C(=N\Sc1ccccc1)c1ccccc1O
inactive: [5] 102 % of control | [6] 88 % of control
